Data taken from patent US20200215099A1, “NON-ANTICOAGULANT SULFATED OR SULFONATED POLYSACCHARIDES” (Baxalta Incorporated, priority 2012, published 2020).

Key:
normal human plasma = experiment: Activated partial thromboplastin time assay (aPTT); assay type: biochemical; conditions: 50% increase clotting time / CAT EC50
Method: The aPTT assay was performed to study anticoagulant activities of NASP. In brief, 50 μL of thawed normal human plasma pool (George King Biomedical, Overland Park, Kans.) was mixed with 5 μL of NASP sample (0-60 μg/mL final plasma concentration). NASPs were diluted in imidazole buffer (3.4 g/L imidazole; 5.85 g/L NaCl, pH 7.4) containing 1% albumin (Baxter, Austria). After addition of 50 μL aPTT reagent (STA APTT, Roche) the samples were incubated for 4 min at 37° C. Clotting was initiated by 50 μL of 25 mM CaCl2 solution (Baxter, Austria) and recorded for up to 5 min. All pipetting steps and clotting time measurements were carried out with an ACL Pro Elite (Instrumentation Laboratory, Bedford, Mass.) instrument. Samples were run in duplicate.
For data analysis, clotting time is plotted against the NASP concentration. Concentrations where the clotting time is 50% increased over the normal plasma control are determined using a linear curve fit.

[1] = system: FVIII-inhibited human whole blood; experiment: Rotation thromboelastometry (ROTEM); conditions: for Activity: normal blood 100, FVIII-inh. blood 0
Method: NASPs (0.4-11 μg/mL) were studied in fresh citrated human whole blood by rotation thromboelastometry (ROTEM), an assay that allows continuous visco-elastic assessment of whole blood clot formation and firmness. Blood was incubated with anti-human FVIII plasma raised in goat (Baxter Bioscience, Austria) at 50 BU/mL to simulate hemophilic conditions. Clotting was triggered with 0.044 pM tissue factor (TF) (PRP reagent, Thrombinoscope BV) in the presence of 40 μg/mL CTI (Haematologic Technologies Inc., Essex Junction, Vt., USA). Then 300 μL of the pre-warmed (37° C.) FVIII-inhibited blood was recalcified with 20 μL of a 0.2 M CaCl2 solution. Clot formation was monitored using a ROTEM instrument (Pentapharm Munich, Germany) at 37° C. The final assay concentration of rTF was 44 fM. The ROTEM recording was started immediately and measured for at least 120 min. Each blood sample was analyzed in two independent measurements.
The thromboelastographic parameters of clotting time (CT), clot formation time (CFT) and maximum clot firmness (MCF) were recorded in accordance with the manufacturer's instructions. The first derivative of the thromboelastogram data is plotted to obtain a graph of velocity (mm/s) against time (s). From this graph, the maximum velocity (maxV) and the time at which the maximum velocity is reached (maxV-t) are also determined.

contact pathway = experiment: CAT in normal plasma with and without CTI; assay type: biochemical; conditions: normal plasma, 1 pM hTF, 4 μM PL, ±41 μg/mL CTI
[2] = system: FVIII-inhibited guinea pigs; experiment: Ex-vivo whole blood TEG in FVIII-inhibited guinea pigs; parameters: species or system guinea pig
Method: Male Dunkin Hartley guinea pigs were intravenously injected with a goat anti-human FVIII inhibitor plasma at a dose of 42 BU/kg (1.9 mL/kg) 45 min before sampling. After 40 min, NASP was intravenously administered to the animals at 0.05, 0.15, 0.45 or 1.35 mg/kg (N=5 per group). 300 U/kg FEIBA (Baxter, BioScience, Austria) served as a positive control and saline as a vehicle control. Shortly after the injection, the Vena cava was punctured and blood was collected in the presence of citrate (ratio 1:9) for whole blood TEG analysis. Measurements were performed using a thromboelastography (TEG) hemostasis analyzer 5000 (Haemonetics Corp, USA) at 37° C. Every blood sample was prepared by pre-warming 204 of a 0.2 M CaCl2) solution in a TEG cuvette at 37° C. adding 340 μL of blood, mixing, and then immediately starting the TEG recording. The measurement proceeded for at least 120 min. The TEG parameters of clotting time (R-time), rapidity of clot strengthening (angle) and maximum clot firmness (MA) were recorded. The primary endpoint R-time was plotted and the median value of the different dosing groups compared with each other.

[3] = Pharmacokinetics after oral administration; assay type: in vivo, CD rats
Method: The preparations were either unfractionated (average MW of 24 kD) or fractionated by a filter method (average MW of 14 kD). The substances were prepared in a physiological saline solution without enhancer or with 0.8 wt % DOC or with 3 wt % chitosan+0.5 mg/mL bromelain. Each group dosed with NASP consisted of six rats. For each formulation, three additional rats served as vehicle controls. Blood samples were collected in the presence of citrate (ratio 1:9) before dosing and 15, 30 min, 1, 5, and 7 h after the dosing. Platelet-poor plasma was prepared by two centrifugation steps at 3000 rpm for 10 min.
The NASPs in the plasma samples were detected by a fluorescence assay that uses the dye HeparinRed that specifically binds to sulfated polysaccharides. Experiments were performed in a black half-area 96-well microtiter plate (Costar). For the S-6-CI standard curves (0.185 to 2.5 μg/mL), 10 μL of rat plasma was spiked with 5 μL of S-6-CI and mixed with 40 μL of human pooled plasma to minimize the matrix effect of individual animals. Then 5 μl HeparinRed dye was added and incubated in the dark at RT for 5 min. Plasma samples of the dosed animals were treated accordingly, however, the 5 μL S-6-CI were replaced by buffer. Fluorescent signals were detected with a Tecan Safire2™ microplate fluorescence reader (Ex/Em 580/620 nm) and the S-6-CI quantified based on the S-6-CI standard curve. […]

[4] = Pharmacokinetics after intravenous administration; assay type: in vivo, CD rats
Method: The preparations were either unfractionated (average MW of 63 kD) or fractionated by a filter method (lots A and B with an average MW of 12 and 14 kD, respectively). The substances were prepared in a physiological saline solution and injected at 5 mL/kg. Each group consisted of three animals. Blood sample were collected in the presence of citrate (ratio 1:9) before dosing and 5, 30 min, 1, 3, 6, and 10 h after the dosing. Platelet-poor plasma was prepared by two centrifugation steps at 3000 rpm. The plasma samples were analyzed for by a liquid-chromatography-mass spectroscopy, a substance-specific method for S-6-CI.

concentration activating the contact pathway (contact pathway): > 33000 ng/mL
time of highest plasma level after dosing ([3]; oral 50 mg/kg): 60 min
plasma levels at all time points ([3]; oral 50 mg/kg with chitosan+bromelain): < 300 ng/mL
in vivo recovery (plasma concentration) ([4]; 5 min after i.v. dosing of 5 mg/kg): 28 to 44 µg/mL
half-life ([4]; i.v. 5 mg/kg, estimated from early time points): 30 to 45 min
Substance: sulfated 6-carboxy-icodextrin
Ratio aPTT/CAT (normal human plasma): very good
CFT ([1]; +0.41 μg/ml): 388 s
CT ([1]; +0.41 μg/ml): 1542 s
MCF ([1]; +0.41 μg/ml): 62 mm
Activity ([1]; +0.41 μg/ml): 108%
CFT ([1]; +1.23 μg/ml): 172 s
CT ([1]; +1.23 μg/ml): 1078 s
MCF ([1]; +1.23 μg/ml): 63.5 mm
Activity ([1]; +1.23 μg/ml): 129%
CFT ([1]; +3.7 μg/ml): 223 s
CT ([1]; +3.7 μg/ml): 1152 s
MCF ([1]; +3.7 μg/ml): 63 mm
Activity ([1]; +3.7 μg/ml): 125%
CFT ([1]; +11.1 μg/ml): 934 s
CT ([1]; +11.1 μg/ml): 2526 s
Activity ([1]; +11.1 μg/ml): 63%
restoration of coagulation (in words) ([1]; ROTEM, 0.044 pM TF): restores coagulation in FVIII-inhibited whole blood
median R-time (clotting time) ([2]; 0.15 and 0.45 mg/kg i.v., no clotting after 2 hours without treatment): 110 min
procoagulant effect, reduction in R-time (in words) ([2]; TEG five minutes after i.v. administration, NASP at 0.15 and 0.45 mg/kg): procoagulant effect superior to vehicle control
